Results: the supplement of paper PMC10307832

Key:
Test in all cases: relative viability (nuclei count vs DMSO), 5 days (fraction); higher = more cells survive
EPLC-272H = tested on: EPLC-272H
How it was run: (§1)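 Lung cancer cell lines were seeded in 1536-well plates and dosed by pin tool the next day, with either a single drug or a fixed anchor-drug dose combined with five library-drug doses (not always all listed) spaced in √10 steps. Five days later, one step fixed the cells and stained their nuclei (final 0.05% Triton X-100, 1% formaldehyde, 1 ug/ml Hoechst), and nuclei were counted on 4× images. Relative viability is the nuclei count in treated wells divided by the count in vehicle wells, and each value is the median of duplicate plates.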

A-427 = tested on: A-427
How it was run: as §1

EKVX = tested on: EKVX
How it was run: as §1

LXF-289 = tested on: LXF-289
How it was run: as §1

HCC-827 = tested on: HCC-827
How it was run: as §1

NCI-H1650 = tested on: NCI-H1650
How it was run: as §1

SW 1573 = tested on: SW 1573
How it was run: as §1

COR-L23 = tested on: COR-L23
How it was run: as §1

NCI-H460 = tested on: NCI-H460
How it was run: as §1

NCI-H1651 = tested on: NCI-H1651
How it was run: as §1

NCI-H2126 = tested on: NCI-H2126
How it was run: as §1

HCC-44 = tested on: HCC-44
How it was run: as §1

NCI-H1915 = tested on: NCI-H1915
How it was run: as §1

NCI-H2087 = tested on: NCI-H2087
How it was run: as §1

201T = tested on: 201T
How it was run: as §1

LCLC-103H = tested on: LCLC-103H
How it was run: as §1

BEN = tested on: BEN
How it was run: as §1

EMC-BAC-2 = tested on: EMC-BAC-2
How it was run: as §1

NCI-H596 = tested on: NCI-H596
How it was run: as §1

NCI-H2347 = tested on: NCI-H2347
How it was run: as §1

With Cc1cnc(-c2cnc(NCCNc3ccc(C#N)cn3)nc2-c2ccc(Cl)cc2Cl)[nH]1 + CC(C)C[C@H](NC(=O)[C@H](Cc1ccccc1)NC(=O)c1cnccn1)B(O)O [Bortezomib] (partner 0.002 µM) the relative viability (EPLC-272H; first compound 0.08 µM) was 0.938, the relative viability (EPLC-272H; first compound 0.253 µM) was 0.84 and the relative viability (EPLC-272H; first compound 0.8 µM) was 0.834. For the same compound, the relative viability (EPLC-272H; first compound 2.53 µM) was 0.903, the relative viability (A-427; first compound 0.08 µM) was 0.972 and the relative viability (A-427; first compound 0.253 µM) was 1.03. For the same compound, the relative viability (A-427; first compound 0.8 µM) was 0.993, the relative viability (A-427; first compound 2.53 µM) was 0.975 and the relative viability (EKVX; first compound 0.08 µM) was 0.93. It also gave a relative viability (EKVX; first compound 0.253 µM) of 0.948, a relative viability (EKVX; first compound 0.8 µM) of 0.975 and a relative viability (EKVX; first compound 2.53 µM) of 0.961. It also gave a relative viability (LXF-289; first compound 0.08 µM) of 1.04, a relative viability (LXF-289; first compound 0.253 µM) of 0.946 and a relative viability (LXF-289; first compound 0.8 µM) of 1.09. The relative viability (LXF-289; first compound 2.53 µM) was 1.11, the relative viability (HCC-827; first compound 0.08 µM) was 1.01 and the relative viability (HCC-827; first compound 0.8 µM) was 0.877. It also gave a relative viability (HCC-827; first compound 2.53 µM) of 1.07, a relative viability (NCI-H1650; first compound 0.08 µM) of 0.207 and a relative viability (NCI-H1650; first compound 0.253 µM) of 0.214. It also gave a relative viability (NCI-H1650; first compound 0.8 µM) of 0.24, a relative viability (NCI-H1650; first compound 2.53 µM) of 0.207 and a relative viability (SW 1573; first compound 0.08 µM) of 1.09. It also gave a relative viability (SW 1573; first compound 0.253 µM) of 0.899, a relative viability (SW 1573; first compound 0.8 µM) of 1.13 and a relative viability (SW 1573; first compound 2.53 µM) of 0.925. It also gave a relative viability (COR-L23; first compound 0.08 µM) of 1.04, a relative viability (COR-L23; first compound 0.253 µM) of 0.997 and a relative viability (COR-L23; first compound 0.8 µM) of 1.14. The relative viability (COR-L23; first compound 2.53 µM) was 0.943, the relative viability (NCI-H460; first compound 0.08 µM) was 1.18 and the relative viability (NCI-H460; first compound 0.253 µM) was 1. It also gave a relative viability (NCI-H460; first compound 0.8 µM) of 1.07, a relative viability (NCI-H460; first compound 2.53 µM) of 0.968 and a relative viability (NCI-H1651; first compound 0.08 µM) of 0.965. It also gave a relative viability (NCI-H1651; first compound 0.253 µM) of 0.883, a relative viability (NCI-H1651; first compound 0.8 µM) of 0.937 and a relative viability (NCI-H1651; first compound 2.53 µM) of 0.92. The relative viability (NCI-H2126; first compound 0.08 µM) was 1.09, the relative viability (NCI-H2126; first compound 0.253 µM) was 1.09 and the relative viability (NCI-H2126; first compound 0.8 µM) was 1.12. For the same compound, the relative viability (NCI-H2126; first compound 2.53 µM) was 1.15, the relative viability (HCC-44; first compound 0.08 µM) was 0.851 and the relative viability (HCC-44; first compound 0.253 µM) was 0.855. For the same compound, the relative viability (HCC-44; first compound 0.8 µM) was 0.91, the relative viability (HCC-44; first compound 2.53 µM) was 0.932 and the relative viability (NCI-H1915; first compound 0.08 µM) was 0.977. The relative viability (NCI-H1915; first compound 0.8 µM) was 1.02, the relative viability (NCI-H1915; first compound 2.53 µM) was 0.975 and the relative viability (NCI-H2087; first compound 0.08 µM) was 0.997. It also gave a relative viability (NCI-H2087; first compound 0.253 µM) of 0.683, a relative viability (NCI-H2087; first compound 0.8 µM) of 0.771 and a relative viability (NCI-H2087; first compound 2.53 µM) of 0.808. The relative viability (201T; first compound 0.08 µM) was 1.12, the relative viability (201T; first compound 0.253 µM) was 0.973 and the relative viability (201T; first compound 0.8 µM) was 1.14. For the same compound, the relative viability (201T; first compound 2.53 µM) was 1.1, the relative viability (LCLC-103H; first compound 0.08 µM) was 1.08 and the relative viability (LCLC-103H; first compound 0.253 µM) was 1.04. It also gave a relative viability (LCLC-103H; first compound 0.8 µM) of 0.983, a relative viability (LCLC-103H; first compound 2.53 µM) of 0.912 and a relative viability (BEN; first compound 0.08 µM) of 0.623. It also gave a relative viability (BEN; first compound 0.253 µM) of 0.786, a relative viability (BEN; first compound 0.8 µM) of 0.725 and a relative viability (BEN; first compound 2.53 µM) of 0.797. The relative viability (EMC-BAC-2; first compound 0.08 µM) was 1.17, the relative viability (EMC-BAC-2; first compound 0.253 µM) was 1.07 and the relative viability (EMC-BAC-2; first compound 0.8 µM) was 1.01. For the same compound, the relative viability (EMC-BAC-2; first compound 2.53 µM) was 1.07, the relative viability (NCI-H596; first compound 0.08 µM) was 1.19 and the relative viability (NCI-H596; first compound 0.253 µM) was 0.802. The relative viability (NCI-H596; first compound 0.8 µM) was 1.09, the relative viability (NCI-H596; first compound 2.53 µM) was 1.12 and the relative viability (NCI-H2347; first compound 0.08 µM) was 0.812. It also gave a relative viability (NCI-H2347; first compound 0.253 µM) of 0.914, a relative viability (NCI-H2347; first compound 0.8 µM) of 1.16 and a relative viability (NCI-H2347; first compound 2.53 µM) of 1.13.
